This is an account of results in patent EP0983256B1, “TRIPTOLIDE DERIVATIVES USEFUL IN THE TREATMENT OF AUTOIMMUNE DISEASES” (priority 1997, dated 1998).

The test system of one assay is IL-2 production. The assay can be described thus: Interleukin-2 assay (IL-2 production, ELISA). The class given is cell-based, human. The following applies: cells stimulated with PHA 10 µg/mL and 10^-8 M TPA; incubation 16-24 hours. The protocol: (§1) Jurkat E6-1 cell line (ATCC), a human leukemic T cell line or lymphocytes prepared from fresh human blood, are grown in compiete culture medium consisting of RPMI-1640 (Mediatech) supplemented with 10% v/v fetal bovine serum (HyClone, Logen, Vermont), penicillin (100 units/mL), streptomycin (200 µg/mL), and 2mM L-glutamine (GIBCO, Grand Island, New York). The cells are grown to a concentration of between 1.2 to 1.8 X 10^6 cells/mL before use. The cells are then centrifuged at low speed and resuspended to a concentration of 1.25 X 10^6 cells/mL in fresh medium.
(§2) The compounds to be tested are dissolved in DMSO, and water is added to make a 50% DMSO/water solution. The compounds are then diluted in sterile water such that the DMSO concentrations are less then 0.05%. The cells at a concentration of 1.25 X 10^6 cells/mL are stimulated with phytohemagglutinin 10 µg/mL (PHA) and 10^-8 M phorbol ester (12-O-tetradecanoylphorbol 13-acetate: TPA), (Sigma, St. Louis, Missouri). The compounds are then added and the cells are plated in flat-bottom tissue culture plates (Falcon, Lincoln Park, New Jersey), with 250,000 cells/well. Plates are then incubated at 37°C under an atmosphere of 5% CO2.
(§3) After incubation (16-24 hours), the cells are assayed for IL-2 production and cell viability (MTT). IL-2 production is assayed utilizing a solid phase ELISA immunoassay, sold in kit form by R&D Systems, Inc., Minneapolis, Minnesota.

The next assay has as its system Jurkat E6-1 cell line. The assay is described as follows: Cell viability (MTT mitochondrial enzyme assay). Particulars: same cells after removal of supernatant for the IL-2 assay; MTT 4 hours, read at 570 nm. The class given is cell-based, human. As to the method:
as §1, §2, §3
Cell viability is measured by the use of a mitochondrial enzyme assay. After removal of the supernatant for the IL-2 assay, Cell Titer 96 (a commercial solution of MTT available from Promega, Madison, Wisconsin) is added to the plates and incubated for 4 hours at 37°C. A solubilization solution is then added and incubated overnight. The plates are then read on an ELISA plate reader at a wavelength of 570 nm. Table II presents the results for the Interleukin-2 assay, the cell viability assay and the ratio of cell viability/IL-2 inhibition.

≈ marks a conversion by molar mass, not a printed value.

As to “[5aS-(5aα,5bα,8β,9α,9aR*,10aβ)]-4,5a,5b,8,9,10a,11,11a-octahydro-5b,8,9-trihydroxy-5a-methyl-8-(1-methylethyl)-1H-oxireno[8a,9]phenanthro[1,2-c]furan-3(5H)-one [Example 1]”, the IC50/IL-2 in the assay on IL-2 production was 1,000 ng/mL. In the assay with Jurkat E6-1 cell line, the IC50/MTT was >>1,000 ng/mL.
For “[5R-(5α,5aβ,6β,7α,9aβ,9bβ)]-3b,4,5,5a,6,7,9a,10,11-decahydro-5a,6,9a-trihydroxy-9b-methyl-7-(1-methylethyl)-5,7-epoxyphenanthro[1,2-c]furan-1(3H)-one [Example 3]”, the IC50/IL-2 in the assay with IL-2 production came out at 500 ng/mL. Also, in the assay on Jurkat E6-1 cell line, the IC50/MTT was >>1,000 ng/mL.
In the same order, the values of `CC(C)[C@]1(O)C=C[C@@]2(O)[C@@]3(C)CCC4=C(COC4=O)C3CC[C@@]2(O)[C@@H]1O` (stereo partly drawn) [Example 2, [5aR-(5aα,6α,7β,9aα,9bα)]-3b,4,5,5a,6,7,9a,9b,10,11-decahydro-5a,6,7,9a-tetrahydroxy-9b-methyl-7-(1-methylethyl)-phenanthro[1,2-c]furan-1(3H)-one] are 14 ng/mL (≈ 0.0384 µM) and 90 ng/mL (≈ 0.247 µM).
